From EP0476944B1, “Aromatase inhibiting 4(5)-imidazoles” (ORION-YHTYMÄ OY, priority 1990, dated 1992)

Assay: Acute toxicity, oral, in mice
Conditions: mouse, in vivo; oral administration; young adult female mice of NMRI-strain; read-out: Acute toxicity, LD₅₀
Protocol: Acute toxicity, LD₅₀, was determined by using young adult female mice of NMRI-strain. The administration was oral. The LD₅₀-value for 4-[2,4-bis(4-fluorophenyl)butyl]-1H-imidazole was 400 mg/kg.

In the case of `Fc1ccc(CCC(Cc2c[nH]cn2)c2ccc(F)cc2)cc1` (stereo not shown) [Compound 3, 4-[2,4-bis(4-fluorophenyl)butyl]-1H-imidazole], the LD50 is reported as 400 mg/kg.
